Measurements published in ChEMBL document CHEMBL3352042, “Synthesis of novel benzimidazole functionalized chiral thioureas and evaluation of their antibacterial and anticancer activities” (Bioorg Med Chem Lett, 2014).
Values after ≈ are worked out from the molar mass of the structure shown. Active and inactive are the calls of the source. The rule behind the calls is not given here.

Columns and labels:
Staphylococcus aureus [1] = assay: Antibacterial activity against Staphylococcus aureus MLS16 MTCC 2940 after 24 hrs by well diffusion method; format: functional
Bacillus subtilis = assay: Antibacterial activity against Bacillus subtilis MTCC 121 after 24 hrs by well diffusion method; format: functional
MCF7 = assay: Cytotoxicity against human MCF7 cells by MTT assay; format: functional, cell-based
HeLa = assay: Cytotoxicity against human HeLa cells by MTT assay; format: functional, cell-based
DU-145 = assay: Cytotoxicity against human DU145 cells by MTT assay; format: functional, cell-based
Micrococcus luteus = assay: Antibacterial activity against Micrococcus luteus MTC 2470 after 24 hrs by well diffusion method; format: functional
Staphylococcus aureus [2] = assay: Antibacterial activity against Staphylococcus aureus MTCC 96 after 24 hrs by well diffusion method; format: functional
A549 = assay: Cytotoxicity against human A549 cells by MTT assay; format: functional, cell-based
Raoultella planticola = assay: Antibacterial activity against Klebsiella planticola MTCC 530 after 24 hrs by well diffusion method; format: functional
Pseudomonas aeruginosa = assay: Antibacterial activity against Pseudomonas aeruginosa MTCC 2453 after 24 hrs by well diffusion method; format: functional
Escherichia coli = assay: Antibacterial activity against Escherichia coli MTCC 739 after 24 hrs by well diffusion method; format: functional
[3] = Homo sapiens, MCF7, read-out: IC50
[4] = Homo sapiens, HeLa, read-out: IC50
[5] = Homo sapiens, DU-145, read-out: IC50
[6] = Homo sapiens, A549, read-out: IC50

Compound | MIC (Staphylococcus aureus [1]; MLS16 MTCC 2940, 24 h) [mg/L] | MIC (Bacillus subtilis; MTCC 121, 24 h) [mg/L] | IC50 (MCF7; [3]) [µM] | IC50 (HeLa; [4]) [µM] | IC50 (DU-145; [5]) [µM] | MIC (Micrococcus luteus; MTC 2470, 24 h) [mg/L] | MIC (Staphylococcus aureus [2]; MTCC 96, 24 h) [mg/L] | IC50 (A549; [6]) [µM] | MIC (Raoultella planticola; MTCC 530, 24 h) [mg/L] | MIC (Pseudomonas aeruginosa; MTCC 2453, 24 h) [mg/L] | MIC (Escherichia coli; MTCC 739, 24 h) [mg/L] | MIC (Staphylococcus aureus [1]) | MIC (Bacillus subtilis) | MIC (Micrococcus luteus) | MIC (Staphylococcus aureus [2]) | MIC (Raoultella planticola) | MIC (Pseudomonas aeruginosa) | MIC (Escherichia coli) | further results
CC(C)[C@H](NC(=S)Nc1cc(C(F)(F)F)cc(C(F)(F)F)c1)c1nc2ccccc2[nH]1 | 12.5 (≈ 27.1 µM) | 12.5 (≈ 27.1 µM) | 24.3 | 28.9 | 26.1 | 25 (≈ 54.3 µM) | 25 (≈ 54.3 µM) | 25.1 | 25 (≈ 54.3 µM) | 6.25 (≈ 13.6 µM) | 12.5 (≈ 27.1 µM) |  |  |  |  |  |  |  | 
S=C(NCc1ccccc1)N[C@@H](Cc1ccccc1)c1nc2ccccc2[nH]1 | > 200 | > 200 | 40.2 | 30.1 | 39.7 | > 200 | 25 (≈ 64.7 µM) | 32.8 | > 200 | > 200 | > 200 |  |  |  |  |  |  |  | 
S=C(Nc1ccccc1)N[C@H](Cc1ccccc1)c1nc2ccccc2[nH]1 |  |  | 9.4 | 10.4 | 18.4 |  |  | 16.2 |  |  |  | inactive | inactive | inactive | inactive | inactive | inactive | inactive | 
C[C@H](NC(=S)NCc1ccccc1)c1nc2ccccc2[nH]1 | > 200 | 25 (≈ 80.5 µM) | 217 |  | 226 | > 200 | 12.5 (≈ 40.3 µM) |  | > 200 | > 200 | > 200 |  |  |  |  |  |  |  | IC50 (A549; a549): Not Active
CC(C)[C@@H](NC(=S)Nc1ccccc1)c1nc2ccccc2[nH]1 |  |  |  |  | 34.8 |  |  | 31.5 |  |  |  | inactive | inactive | inactive | inactive | inactive | inactive | inactive | IC50 (MCF7; mcf7): Not Active; IC50 (HeLa; hela): Not Active
NC[C@@H]1O[C@H](O[C@H]2[C@@H](O)[C@H](O[C@@H]3[C@@H](O)[C@H](N)C[C@H](N)[C@H]3O[C@H]3O[C@H](CN)[C@@H](O)[C@H](O)[C@H]3N)O[C@@H]2CO)[C@H](N)[C@@H](O)[C@@H]1O [FRAMYCETIN] | 12.5 (≈ 20.3 µM) | 12.5 (≈ 20.3 µM) |  |  |  | 12.5 (≈ 20.3 µM) | 12.5 (≈ 20.3 µM) |  | 12.5 (≈ 20.3 µM) | 12.5 (≈ 20.3 µM) | 12.5 (≈ 20.3 µM) |  |  |  |  |  |  |  | 
C[C@@H](NC(=S)Nc1cc(C(F)(F)F)cc(C(F)(F)F)c1)c1nc2ccccc2[nH]1 |  |  | 10.3 | 16.1 | 17.6 |  |  | 15.2 |  |  |  | inactive | inactive | inactive | inactive | inactive | inactive | inactive | 
CC(C)[C@@H](NC(=S)Nc1cc(C(F)(F)F)cc(C(F)(F)F)c1)c1nc2ccccc2[nH]1 |  |  | 16.4 | 16.2 | 20.2 |  |  | 22.4 |  |  |  | inactive | inactive | inactive | inactive | inactive | inactive | inactive | 
C[C@@H](NC(=S)NCc1ccccc1)c1nc2ccccc2[nH]1 |  |  | 14.3 |  | 28.7 |  |  | 18.7 |  |  |  | inactive | inactive | inactive | inactive | inactive | inactive | inactive | IC50 (HeLa; hela): Not Active
CC(C)C[C@H](NC(=S)Nc1ccccc1)c1nc2ccccc2[nH]1 | > 200 | > 200 | 25.8 | 29.1 | 28.9 | > 200 | 25 (≈ 73.9 µM) | 28.6 | > 200 | > 200 | > 200 |  |  |  |  |  |  |  | 
S=C(Nc1ccccc1)N[C@@H](Cc1ccccc1)c1nc2ccccc2[nH]1 | > 200 | > 200 |  |  |  | > 200 | 25 (≈ 67.1 µM) |  | > 200 | > 200 | 12.5 (≈ 33.6 µM) |  |  |  |  |  |  |  | IC50 (MCF7; mcf7): Not Active; IC50 (HeLa; hela): Not Active; IC50 (DU-145; du-145): Not Active; IC50 (A549; a549): Not Active
C[C@@H](NC(=S)Nc1ccccc1)c1nc2ccccc2[nH]1 |  |  | 16.4 | 12.4 | 22.1 |  |  | 14.8 |  |  |  | inactive | inactive | inactive | inactive | inactive | inactive | inactive | 
C[C@H](NC(=S)Nc1cc(C(F)(F)F)cc(C(F)(F)F)c1)c1nc2ccccc2[nH]1 | 12.5 (≈ 28.9 µM) | 25 (≈ 57.8 µM) | 187 | 133 | 154 | 25 (≈ 57.8 µM) | 12.5 (≈ 28.9 µM) | 220 | > 200 | > 200 | > 200 |  |  |  |  |  |  |  | 
FC(F)(F)c1cc(NC(=S)N[C@@H](Cc2ccccc2)c2nc3ccccc3[nH]2)cc(C(F)(F)F)c1 | > 200 | > 200 | 19.2 | 18.2 | 20.4 | > 200 | 12.5 (≈ 24.6 µM) | 19 | > 200 | > 200 | 12.5 (≈ 24.6 µM) |  |  |  |  |  |  |  | 
CC(C)[C@H](NC(=S)NCc1ccccc1)c1nc2ccccc2[nH]1 | > 200 | 12.5 (≈ 36.9 µM) | 57.8 | 49.9 | 48.5 | > 200 | 12.5 (≈ 36.9 µM) | 56.1 | > 200 | > 200 | > 200 |  |  |  |  |  |  |  | 
FC(F)(F)c1cc(NC(=S)N[C@H](Cc2ccccc2)c2nc3ccccc3[nH]2)cc(C(F)(F)F)c1 |  |  | 12.1 | 13.2 | 17.4 |  |  | 15.8 |  |  |  | inactive | inactive | inactive | inactive | inactive | inactive | inactive | 
CC(C)[C@@H](NC(=S)NCc1ccccc1)c1nc2ccccc2[nH]1 |  |  | 11.1 | 12.3 | 17.3 |  |  | 11.3 |  |  |  | inactive | inactive | inactive | inactive | inactive | inactive | inactive | 
CC(C)C[C@H](NC(=S)NCc1ccccc1)c1nc2ccccc2[nH]1 | > 200 | > 200 |  | 31.2 | 21.1 | > 200 | > 200 | 75.7 | > 200 | > 200 | > 200 |  |  |  |  |  |  |  | 
COc1cccc2c1C(=O)c1c(O)c3c(c(O)c1C2=O)C[C@@](O)(C(=O)CO)C[C@@H]3O[C@H]1C[C@H](N)[C@H](O)[C@H](C)O1 [DOXORUBICIN] |  |  |  |  | 0.8 |  |  |  |  |  |  |  |  |  |  |  |  |  | 
